Assays:
Assay in all cases: biochemical
[1] = target: T1, panel of 374 wild-type kinases (Homo sapiens, UniProt P41279); details: read-out: % Enzyme Activity (relative to DMSO controls), COT1/MAP3K8
T1 construct: purchased Reaction Biology Corporation

[2] = target: T2, panel of 374 wild-type kinases (Homo sapiens, UniProt O60674); details: read-out: % Enzyme Activity (relative to DMSO controls), JAK2
T2 construct: purchased Reaction Biology Corporation

[3] = target: T3, panel of 374 wild-type kinases (Homo sapiens, UniProt P49761); details: read-out: % Enzyme Activity (relative to DMSO controls), CLK3
T3 construct: purchased Reaction Biology Corporation

[4] = target: T4, panel of 374 wild-type kinases (Homo sapiens, UniProt P06213); details: read-out: % Enzyme Activity (relative to DMSO controls), IR
T4 construct: purchased Reaction Biology Corporation

[5] = target: T5, panel of 374 wild-type kinases (Homo sapiens, UniProt Q9P289); details: read-out: % Enzyme Activity (relative to DMSO controls), MST4
T5 construct: purchased Reaction Biology Corporation

[6] = target: T6, panel of 374 wild-type kinases (Homo sapiens, UniProt Q16566); details: read-out: % Enzyme Activity (relative to DMSO controls), CAMK4
T6 construct: purchased Reaction Biology Corporation

[7] = target: T7, panel of 374 wild-type kinases (Homo sapiens, UniProt P08922); details: read-out: % Enzyme Activity (relative to DMSO controls), kinase ROS/ROS1
T7 construct: purchased Reaction Biology Corporation

[8] = target: T8, panel of 374 wild-type kinases (Homo sapiens, UniProt P10398); details: read-out: % Enzyme Activity (relative to DMSO controls), ARAF
T8 construct: purchased Reaction Biology Corporation
T8 sequence (P10398 1-606): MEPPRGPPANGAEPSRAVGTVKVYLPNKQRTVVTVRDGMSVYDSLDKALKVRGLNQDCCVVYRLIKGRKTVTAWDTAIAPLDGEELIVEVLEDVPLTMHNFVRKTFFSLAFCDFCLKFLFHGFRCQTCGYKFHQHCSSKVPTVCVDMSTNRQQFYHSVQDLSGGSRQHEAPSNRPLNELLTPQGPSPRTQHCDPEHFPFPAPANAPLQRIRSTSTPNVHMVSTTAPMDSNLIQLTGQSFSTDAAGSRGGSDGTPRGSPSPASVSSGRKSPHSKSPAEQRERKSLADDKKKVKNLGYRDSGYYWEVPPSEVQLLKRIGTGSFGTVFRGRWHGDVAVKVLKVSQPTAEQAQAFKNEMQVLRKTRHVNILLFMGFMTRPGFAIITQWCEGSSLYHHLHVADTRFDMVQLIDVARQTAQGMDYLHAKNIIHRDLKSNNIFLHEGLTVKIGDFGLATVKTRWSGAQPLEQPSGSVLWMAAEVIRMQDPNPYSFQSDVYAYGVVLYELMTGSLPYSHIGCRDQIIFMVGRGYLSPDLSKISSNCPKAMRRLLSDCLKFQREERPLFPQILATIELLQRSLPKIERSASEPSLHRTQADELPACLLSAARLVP

[9] = target: T9, panel of 374 wild-type kinases (Homo sapiens, UniProt Q8TD19); details: read-out: % Enzyme Activity (relative to DMSO controls), NEK9
T9 construct: purchased Reaction Biology Corporation
T9 sequence (Q8TD19 1-979): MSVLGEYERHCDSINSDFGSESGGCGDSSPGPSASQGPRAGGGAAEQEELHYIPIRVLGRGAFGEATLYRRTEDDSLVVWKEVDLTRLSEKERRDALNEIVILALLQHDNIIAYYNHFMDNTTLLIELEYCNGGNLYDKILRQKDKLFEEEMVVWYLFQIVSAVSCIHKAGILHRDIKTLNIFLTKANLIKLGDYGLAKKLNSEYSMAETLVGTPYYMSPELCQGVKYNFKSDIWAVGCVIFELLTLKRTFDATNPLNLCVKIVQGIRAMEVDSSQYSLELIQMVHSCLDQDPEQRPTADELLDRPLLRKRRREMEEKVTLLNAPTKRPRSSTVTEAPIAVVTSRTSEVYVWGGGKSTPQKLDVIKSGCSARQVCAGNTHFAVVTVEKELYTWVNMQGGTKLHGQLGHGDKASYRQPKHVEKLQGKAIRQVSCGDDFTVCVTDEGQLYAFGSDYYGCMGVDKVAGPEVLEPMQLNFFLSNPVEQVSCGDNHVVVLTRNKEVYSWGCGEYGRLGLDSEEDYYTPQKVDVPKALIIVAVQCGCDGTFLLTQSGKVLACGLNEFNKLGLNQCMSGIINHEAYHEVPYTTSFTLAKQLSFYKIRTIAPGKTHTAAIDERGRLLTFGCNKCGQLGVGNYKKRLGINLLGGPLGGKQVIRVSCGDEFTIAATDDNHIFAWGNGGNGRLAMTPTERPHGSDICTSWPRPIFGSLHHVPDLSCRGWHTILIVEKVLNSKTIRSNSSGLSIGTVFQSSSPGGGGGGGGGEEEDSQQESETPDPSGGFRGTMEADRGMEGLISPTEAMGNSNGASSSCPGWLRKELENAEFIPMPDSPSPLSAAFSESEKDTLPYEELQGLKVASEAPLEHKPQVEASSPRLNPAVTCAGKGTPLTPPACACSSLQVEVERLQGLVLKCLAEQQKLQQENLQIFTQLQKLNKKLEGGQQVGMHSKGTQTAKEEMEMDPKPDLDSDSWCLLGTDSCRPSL

[10] = target: T10, panel of 374 wild-type kinases (Homo sapiens, UniProt P27361); details: read-out: % Enzyme Activity (relative to DMSO controls), ERK1
T10 construct: purchased Reaction Biology Corporation

[11] = target: T11, panel of 374 wild-type kinases (Homo sapiens, UniProt Q9UKE5); details: read-out: % Enzyme Activity (relative to DMSO controls), kinase TNIK
T11 construct: purchased Reaction Biology Corporation

T1 sequence (P41279 whole entry): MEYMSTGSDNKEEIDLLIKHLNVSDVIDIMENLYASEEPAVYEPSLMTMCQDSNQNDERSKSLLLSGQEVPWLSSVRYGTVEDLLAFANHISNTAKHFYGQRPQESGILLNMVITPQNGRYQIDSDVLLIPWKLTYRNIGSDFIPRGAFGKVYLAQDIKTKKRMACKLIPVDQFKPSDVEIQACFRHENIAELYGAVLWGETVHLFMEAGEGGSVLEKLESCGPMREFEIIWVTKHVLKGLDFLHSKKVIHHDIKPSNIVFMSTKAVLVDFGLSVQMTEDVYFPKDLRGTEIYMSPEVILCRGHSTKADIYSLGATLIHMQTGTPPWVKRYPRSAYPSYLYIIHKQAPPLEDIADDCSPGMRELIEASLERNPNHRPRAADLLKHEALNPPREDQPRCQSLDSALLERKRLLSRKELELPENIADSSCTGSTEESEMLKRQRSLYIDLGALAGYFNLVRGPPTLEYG
T5 sequence (Q9P289 whole entry): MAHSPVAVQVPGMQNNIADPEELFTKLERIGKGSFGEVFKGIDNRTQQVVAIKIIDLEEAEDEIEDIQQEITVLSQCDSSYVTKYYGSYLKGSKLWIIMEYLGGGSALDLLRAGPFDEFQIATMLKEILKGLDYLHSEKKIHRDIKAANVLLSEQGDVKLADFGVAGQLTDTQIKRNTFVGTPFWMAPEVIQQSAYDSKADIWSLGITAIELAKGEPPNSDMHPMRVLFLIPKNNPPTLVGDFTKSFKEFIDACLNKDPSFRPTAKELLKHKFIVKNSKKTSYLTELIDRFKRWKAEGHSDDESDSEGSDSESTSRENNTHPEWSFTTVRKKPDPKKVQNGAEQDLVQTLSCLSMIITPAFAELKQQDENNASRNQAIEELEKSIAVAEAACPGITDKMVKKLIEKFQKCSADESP
T2 sequence (O60674 whole entry): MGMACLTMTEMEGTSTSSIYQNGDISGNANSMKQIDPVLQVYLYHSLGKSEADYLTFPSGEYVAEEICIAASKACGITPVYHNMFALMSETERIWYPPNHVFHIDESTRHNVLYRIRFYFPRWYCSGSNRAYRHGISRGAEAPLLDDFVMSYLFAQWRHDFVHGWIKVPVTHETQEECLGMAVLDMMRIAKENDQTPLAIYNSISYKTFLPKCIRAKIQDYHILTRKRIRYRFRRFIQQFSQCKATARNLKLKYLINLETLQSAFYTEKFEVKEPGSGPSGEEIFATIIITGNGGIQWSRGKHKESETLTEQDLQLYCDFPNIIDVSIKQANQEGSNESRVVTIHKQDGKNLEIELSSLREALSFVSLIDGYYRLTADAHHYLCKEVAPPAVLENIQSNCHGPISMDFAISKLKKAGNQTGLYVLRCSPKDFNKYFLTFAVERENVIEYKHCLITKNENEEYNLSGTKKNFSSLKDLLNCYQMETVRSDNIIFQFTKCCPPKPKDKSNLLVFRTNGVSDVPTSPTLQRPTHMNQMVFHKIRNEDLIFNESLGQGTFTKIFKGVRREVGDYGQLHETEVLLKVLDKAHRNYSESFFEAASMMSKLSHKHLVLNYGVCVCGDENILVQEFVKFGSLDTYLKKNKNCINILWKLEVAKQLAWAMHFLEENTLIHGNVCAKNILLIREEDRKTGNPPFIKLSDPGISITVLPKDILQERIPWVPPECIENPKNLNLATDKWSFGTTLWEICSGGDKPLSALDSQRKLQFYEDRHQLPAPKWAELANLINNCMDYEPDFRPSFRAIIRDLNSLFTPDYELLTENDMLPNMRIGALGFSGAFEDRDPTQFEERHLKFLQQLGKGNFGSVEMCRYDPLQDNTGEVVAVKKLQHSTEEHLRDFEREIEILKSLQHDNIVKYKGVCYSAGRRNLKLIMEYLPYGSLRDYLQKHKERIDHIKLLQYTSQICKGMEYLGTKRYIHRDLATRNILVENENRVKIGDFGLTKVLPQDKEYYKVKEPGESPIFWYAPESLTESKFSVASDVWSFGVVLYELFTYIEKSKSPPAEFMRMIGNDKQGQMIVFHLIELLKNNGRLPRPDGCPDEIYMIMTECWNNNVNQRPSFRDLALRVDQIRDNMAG
T6 sequence (Q16566 whole entry): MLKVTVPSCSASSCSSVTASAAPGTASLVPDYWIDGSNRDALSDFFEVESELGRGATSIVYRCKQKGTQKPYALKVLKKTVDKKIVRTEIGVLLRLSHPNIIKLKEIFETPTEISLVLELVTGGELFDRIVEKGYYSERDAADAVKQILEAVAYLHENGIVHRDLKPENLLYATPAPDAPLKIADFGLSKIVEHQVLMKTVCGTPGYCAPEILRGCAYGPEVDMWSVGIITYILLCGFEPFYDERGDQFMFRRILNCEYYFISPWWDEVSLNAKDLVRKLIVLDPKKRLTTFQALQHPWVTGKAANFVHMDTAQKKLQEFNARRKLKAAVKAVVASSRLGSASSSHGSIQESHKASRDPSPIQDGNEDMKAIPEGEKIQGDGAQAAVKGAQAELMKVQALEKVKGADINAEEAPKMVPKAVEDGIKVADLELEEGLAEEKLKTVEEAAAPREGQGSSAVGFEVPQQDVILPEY
T7 sequence (P08922 28-2347): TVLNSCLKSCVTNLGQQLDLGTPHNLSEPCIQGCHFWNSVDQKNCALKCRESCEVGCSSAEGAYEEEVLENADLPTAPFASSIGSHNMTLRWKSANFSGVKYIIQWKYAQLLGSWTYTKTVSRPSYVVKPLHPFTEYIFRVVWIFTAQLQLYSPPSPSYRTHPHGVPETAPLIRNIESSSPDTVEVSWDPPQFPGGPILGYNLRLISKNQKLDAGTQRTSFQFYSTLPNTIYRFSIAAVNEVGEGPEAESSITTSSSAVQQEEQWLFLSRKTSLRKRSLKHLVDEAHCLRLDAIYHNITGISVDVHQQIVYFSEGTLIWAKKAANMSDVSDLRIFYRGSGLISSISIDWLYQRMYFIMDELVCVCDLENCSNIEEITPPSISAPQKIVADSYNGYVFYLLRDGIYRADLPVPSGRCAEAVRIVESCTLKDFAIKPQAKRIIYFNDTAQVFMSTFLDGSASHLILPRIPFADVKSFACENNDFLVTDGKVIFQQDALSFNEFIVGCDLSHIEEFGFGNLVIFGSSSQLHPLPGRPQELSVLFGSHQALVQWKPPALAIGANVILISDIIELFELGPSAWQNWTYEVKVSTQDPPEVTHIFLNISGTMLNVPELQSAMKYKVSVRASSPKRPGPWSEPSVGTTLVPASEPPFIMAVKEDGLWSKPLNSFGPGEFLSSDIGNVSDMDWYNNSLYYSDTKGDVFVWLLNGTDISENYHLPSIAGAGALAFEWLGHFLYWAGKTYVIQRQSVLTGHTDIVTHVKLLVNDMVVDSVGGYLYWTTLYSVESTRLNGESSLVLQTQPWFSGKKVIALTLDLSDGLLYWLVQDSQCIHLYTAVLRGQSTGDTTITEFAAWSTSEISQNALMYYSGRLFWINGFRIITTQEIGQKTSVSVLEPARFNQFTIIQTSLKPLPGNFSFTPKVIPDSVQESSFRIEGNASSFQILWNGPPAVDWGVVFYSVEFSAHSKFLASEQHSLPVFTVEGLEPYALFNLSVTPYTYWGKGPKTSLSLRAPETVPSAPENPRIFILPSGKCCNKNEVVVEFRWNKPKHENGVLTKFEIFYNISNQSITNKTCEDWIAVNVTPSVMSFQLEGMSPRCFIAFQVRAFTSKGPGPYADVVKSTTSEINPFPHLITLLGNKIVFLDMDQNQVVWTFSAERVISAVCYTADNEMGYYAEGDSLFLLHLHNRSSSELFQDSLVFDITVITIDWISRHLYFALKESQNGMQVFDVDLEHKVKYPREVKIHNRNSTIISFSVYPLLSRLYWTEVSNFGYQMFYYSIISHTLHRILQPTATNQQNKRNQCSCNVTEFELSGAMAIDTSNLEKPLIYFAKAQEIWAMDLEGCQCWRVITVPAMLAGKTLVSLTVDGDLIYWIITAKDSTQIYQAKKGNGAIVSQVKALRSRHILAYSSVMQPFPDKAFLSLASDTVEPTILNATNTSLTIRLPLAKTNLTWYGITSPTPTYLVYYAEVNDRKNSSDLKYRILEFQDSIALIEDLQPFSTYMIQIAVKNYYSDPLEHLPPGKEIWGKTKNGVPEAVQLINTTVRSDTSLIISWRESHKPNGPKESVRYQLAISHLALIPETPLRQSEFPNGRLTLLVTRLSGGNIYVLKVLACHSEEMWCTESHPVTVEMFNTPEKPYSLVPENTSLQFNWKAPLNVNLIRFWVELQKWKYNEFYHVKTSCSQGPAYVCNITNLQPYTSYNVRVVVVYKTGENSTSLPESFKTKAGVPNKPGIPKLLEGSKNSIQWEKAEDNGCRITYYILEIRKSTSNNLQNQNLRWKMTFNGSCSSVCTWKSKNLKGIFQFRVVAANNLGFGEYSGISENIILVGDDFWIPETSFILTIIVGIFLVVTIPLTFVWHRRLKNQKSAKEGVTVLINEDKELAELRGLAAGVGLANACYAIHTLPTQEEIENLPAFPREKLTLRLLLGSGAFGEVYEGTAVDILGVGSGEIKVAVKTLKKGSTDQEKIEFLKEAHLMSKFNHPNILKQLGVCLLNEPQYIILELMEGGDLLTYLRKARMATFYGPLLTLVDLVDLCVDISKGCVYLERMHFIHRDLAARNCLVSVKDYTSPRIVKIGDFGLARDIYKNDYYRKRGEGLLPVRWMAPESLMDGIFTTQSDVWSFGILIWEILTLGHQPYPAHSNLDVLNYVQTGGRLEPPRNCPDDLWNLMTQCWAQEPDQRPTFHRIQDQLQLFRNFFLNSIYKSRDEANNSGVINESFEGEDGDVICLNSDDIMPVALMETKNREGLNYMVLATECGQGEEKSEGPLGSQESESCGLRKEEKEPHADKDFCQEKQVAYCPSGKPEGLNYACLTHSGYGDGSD

For `O=C(Nc1cnn(-c2csc(C(=O)NC3COC3)c2)c1)Nc1ccccc1Cl` [Compound 17, 4-(4-(3-(2-chlorophenyl)ureido)-1H-pyrazol-1-yl)-N-(oxetan-3-yl)thiophene-2-carboxamide], the remaining activity at 5 µM [1] was 92.7%, the remaining activity at 5 µM [2] was 98.2% and the remaining activity at 5 µM [3] was 120%. It also gave a remaining activity at 5 µM [4] of 98.4%, a remaining activity at 5 µM [5] of 98.3% and a remaining activity at 5 µM [6] of 114%. The remaining activity at 5 µM [7] was 103%, the remaining activity at 5 µM [8] was 95.1% and the remaining activity at 5 µM [9] was 104%. It also gave a remaining activity at 5 µM [10] of 92.8% and a remaining activity at 5 µM [11] of 53.2%.

With `O=C(Nc1cnn(-c2csc(C(=O)NC3COC3)c2)c1)Nc1c(F)cccc1Cl` [Compound 25, 4-(4-(3-(2-chloro-6-fluorophenyl)ureido)-1H-pyrazol-1-yl)-N-(oxetan-3-yl)thiophene-2-carboxamide] the remaining activity at 5 µM [1] was 93.6%, the remaining activity at 5 µM [2] was 96.5% and the remaining activity at 5 µM [3] was 93.5%. The remaining activity at 5 µM [4] was 102%, the remaining activity at 5 µM [5] was 71.4% and the remaining activity at 5 µM [6] was 98.7%. The remaining activity at 5 µM [7] was 85.5%, the remaining activity at 5 µM [8] was 94.4% and the remaining activity at 5 µM [9] was 88.4%. It also gave a remaining activity at 5 µM [10] of 92.4% and a remaining activity at 5 µM [11] of 84.3%.

In the case of `Cc1sc(C(=O)NC2COC2)cc1-n1cc(NC(=O)Nc2c(F)cccc2Cl)cn1` [Compound 27, 4-(4-(3-(2-chloro-6-fluorophenyl)ureido)-1H-pyrazol-1-yl)-5-methyl-N-(oxetan-3-yl)thiophene-2-carboxamide], the remaining activity at 10 µM ([1]; 10 uM) is reported as 105%, the remaining activity at 10 µM ([2]; 10 uM) is reported as 95% and the remaining activity at 10 µM ([3]; 10 uM) is reported as 99.6%. The remaining activity at 10 µM ([4]; 10 uM) was 85.5%, the remaining activity at 10 µM ([5]; 10 uM) was 72.4% and the remaining activity at 10 µM ([6]; 10 uM) was 98.5%. For the same compound, the remaining activity at 10 µM ([7]; 10 uM) was 102%, the remaining activity at 10 µM ([8]; 10 uM) was 84.1% and the remaining activity at 10 µM ([9]; 10 uM) was 111%. For the same compound, the remaining activity at 10 µM ([10]; 10 uM) was 107% and the remaining activity at 10 µM ([11]; 10 uM) was 94.5%.
